This passage reports IC50 results from patent US12187742B2 (XRAD Therapeutics, Inc., priority 2018, dated 2025).

Where a name gives a salt, the structure may show the parent alone.

In this test the target is ATM (Homo sapiens (Human), UniProt Q13315). The test is described as follows: ATM in Cell Western Assay (pKAP1 in etoposide-treated MCF-7 cells). The class given is cell-based. The settings on record: pKAP1 in etoposide-treated MCF-7 cells. An outline of the steps: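 Cells received compounds in a 10-dose, 3-fold series from a 1 μM final top concentration, then 100 μM etoposide, for 1 hr at 37° C. They were then fixed with paraformaldehyde and permeabilized with 0.1% Triton X-100. After immunostaining, plates were scanned on an infrared imager.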
ATM, sequence (Q13315 whole entry): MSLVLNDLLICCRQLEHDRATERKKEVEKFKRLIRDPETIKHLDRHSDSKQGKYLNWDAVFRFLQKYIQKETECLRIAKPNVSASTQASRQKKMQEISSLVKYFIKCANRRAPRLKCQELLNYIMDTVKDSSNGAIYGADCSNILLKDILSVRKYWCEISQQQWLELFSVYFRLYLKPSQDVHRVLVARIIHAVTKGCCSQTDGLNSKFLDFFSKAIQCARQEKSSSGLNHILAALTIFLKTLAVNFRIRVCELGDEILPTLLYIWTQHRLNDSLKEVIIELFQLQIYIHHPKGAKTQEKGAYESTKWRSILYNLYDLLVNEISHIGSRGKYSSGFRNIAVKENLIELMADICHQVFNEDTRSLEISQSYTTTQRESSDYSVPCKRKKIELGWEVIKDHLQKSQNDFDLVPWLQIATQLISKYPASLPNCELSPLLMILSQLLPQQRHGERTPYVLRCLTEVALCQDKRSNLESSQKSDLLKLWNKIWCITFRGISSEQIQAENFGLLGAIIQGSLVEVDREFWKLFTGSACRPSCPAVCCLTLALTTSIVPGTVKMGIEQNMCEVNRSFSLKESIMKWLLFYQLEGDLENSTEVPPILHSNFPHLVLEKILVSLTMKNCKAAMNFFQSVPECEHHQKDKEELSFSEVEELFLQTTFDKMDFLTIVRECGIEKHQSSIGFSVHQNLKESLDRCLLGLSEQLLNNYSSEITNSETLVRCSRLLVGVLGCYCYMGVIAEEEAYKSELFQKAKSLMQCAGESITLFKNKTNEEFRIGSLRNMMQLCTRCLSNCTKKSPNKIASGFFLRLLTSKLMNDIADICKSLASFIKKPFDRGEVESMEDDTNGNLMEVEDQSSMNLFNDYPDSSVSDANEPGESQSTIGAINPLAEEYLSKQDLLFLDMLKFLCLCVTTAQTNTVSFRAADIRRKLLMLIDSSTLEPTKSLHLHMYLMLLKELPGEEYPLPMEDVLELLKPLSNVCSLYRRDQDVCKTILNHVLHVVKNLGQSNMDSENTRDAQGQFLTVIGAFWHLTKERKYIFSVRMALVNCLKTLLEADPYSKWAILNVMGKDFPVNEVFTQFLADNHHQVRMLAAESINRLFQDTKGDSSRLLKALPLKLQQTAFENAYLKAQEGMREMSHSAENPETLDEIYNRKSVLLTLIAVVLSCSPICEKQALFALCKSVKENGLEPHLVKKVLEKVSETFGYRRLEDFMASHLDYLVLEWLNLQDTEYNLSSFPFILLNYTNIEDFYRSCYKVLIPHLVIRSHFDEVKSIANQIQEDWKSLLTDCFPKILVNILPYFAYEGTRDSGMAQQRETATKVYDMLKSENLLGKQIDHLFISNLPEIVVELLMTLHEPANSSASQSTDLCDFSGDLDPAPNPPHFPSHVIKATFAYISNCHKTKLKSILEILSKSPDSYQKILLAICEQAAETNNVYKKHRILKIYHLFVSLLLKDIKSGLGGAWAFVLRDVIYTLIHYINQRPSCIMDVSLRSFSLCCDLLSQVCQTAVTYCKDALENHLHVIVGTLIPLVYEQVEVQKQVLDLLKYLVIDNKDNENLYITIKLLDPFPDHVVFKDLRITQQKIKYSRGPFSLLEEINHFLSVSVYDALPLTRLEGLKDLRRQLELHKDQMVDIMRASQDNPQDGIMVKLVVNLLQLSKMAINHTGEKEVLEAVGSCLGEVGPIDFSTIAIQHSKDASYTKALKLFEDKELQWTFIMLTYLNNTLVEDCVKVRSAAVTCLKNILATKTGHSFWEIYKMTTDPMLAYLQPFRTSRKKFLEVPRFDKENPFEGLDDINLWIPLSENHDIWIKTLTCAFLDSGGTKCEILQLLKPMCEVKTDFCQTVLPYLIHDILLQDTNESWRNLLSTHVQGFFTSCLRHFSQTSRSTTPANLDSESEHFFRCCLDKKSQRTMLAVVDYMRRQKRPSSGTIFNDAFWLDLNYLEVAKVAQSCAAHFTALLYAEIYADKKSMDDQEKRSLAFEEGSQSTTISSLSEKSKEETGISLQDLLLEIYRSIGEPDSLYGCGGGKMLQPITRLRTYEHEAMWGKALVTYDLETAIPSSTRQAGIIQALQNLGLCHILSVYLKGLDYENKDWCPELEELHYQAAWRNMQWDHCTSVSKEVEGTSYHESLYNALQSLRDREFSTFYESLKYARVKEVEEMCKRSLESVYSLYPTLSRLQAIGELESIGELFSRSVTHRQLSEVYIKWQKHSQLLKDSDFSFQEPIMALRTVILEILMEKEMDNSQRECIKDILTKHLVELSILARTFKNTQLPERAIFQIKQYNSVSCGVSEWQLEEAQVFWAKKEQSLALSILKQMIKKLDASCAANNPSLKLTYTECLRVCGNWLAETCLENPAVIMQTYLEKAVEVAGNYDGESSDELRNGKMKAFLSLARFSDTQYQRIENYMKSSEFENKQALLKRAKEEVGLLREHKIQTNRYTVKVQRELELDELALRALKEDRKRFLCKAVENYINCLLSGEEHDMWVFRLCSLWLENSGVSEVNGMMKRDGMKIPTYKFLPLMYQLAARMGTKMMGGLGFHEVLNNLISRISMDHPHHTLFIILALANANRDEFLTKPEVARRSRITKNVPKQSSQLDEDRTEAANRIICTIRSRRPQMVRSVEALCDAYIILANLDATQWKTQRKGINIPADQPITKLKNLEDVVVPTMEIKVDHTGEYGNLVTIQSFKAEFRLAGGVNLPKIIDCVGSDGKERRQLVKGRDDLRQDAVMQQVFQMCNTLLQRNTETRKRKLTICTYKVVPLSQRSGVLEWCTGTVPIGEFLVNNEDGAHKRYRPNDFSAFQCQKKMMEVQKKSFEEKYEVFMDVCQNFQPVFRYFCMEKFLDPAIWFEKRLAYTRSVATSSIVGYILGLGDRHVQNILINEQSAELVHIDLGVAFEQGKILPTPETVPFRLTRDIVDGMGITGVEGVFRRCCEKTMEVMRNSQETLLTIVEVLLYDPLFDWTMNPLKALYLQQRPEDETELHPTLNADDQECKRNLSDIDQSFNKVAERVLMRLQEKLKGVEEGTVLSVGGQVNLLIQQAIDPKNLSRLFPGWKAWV
As for `CC(C)NCCOc1ncc(-c2cc3c(cc2F)ncc2c3[C@]3(C[C@@H](Cc4ccccc4)C3)C(=O)N2C)cc1NS(C)(=O)=O` [Example 450, trans-N-(5-(3-Benzyl-7-fluoro-3′-methyl-2′-oxo-2′,3′-dihydrospiro [cyclobutane-1,1′-pyrrolo[2,3-c]quinolin]-8′-yl)-2-(2-(isopropylamino)ethoxy)pyridin-3-yl)methanesulfonamide], the IC50 was in the range of 0.001 to 0.1 µM.
As for `CC(C)NCCOc1ncc(-c2cc3c(cc2F)ncc2c3[C@]3(C[C@H](CN(C)C)C3)C(=O)N2C)cc1NS(C)(=O)=O` [Example 452, cis-N-(5-(3-((Dimethylamino)methyl)-7′-fluoro-3′-methyl-2′-oxo-2′,3′-dihydrospiro[cyclobutane-1,1′-pyrrolo[2,3-c]quinolin]-8′-yl)-2-(2-(isopropylamino)ethoxy)pyridin-3-yl)methanesulfonamide], the IC50 was 0.001 to 0.1 µM.
Next, `CC(C)NCCOc1ncc(-c2cc3c(cc2F)ncc2c3[C@]3(C[C@@H](CN(C)C)C3)C(=O)N2C)cc1NS(C)(=O)=O` [Example 453, trans-N-(5-(3-((Dimethylamino)methyl)-7′-fluoro-3′-methyl-2′-oxo-2′,3′-dihydrospiro[cyclobutane-1,1′-pyrrolo[2,3-c]quinolin]-8′-yl)-2-(2-(isopropylamino)ethoxy)pyridin-3-yl)methanesulfonamide]: 0.001 to 0.1 µM; `CNC[C@H]1C[C@]2(C1)C(=O)N(C)c1cnc3cc(F)c(-c4cnc(OCCNC(C)C)c(NS(C)(=O)=O)c4)cc3c12` [Example 454, cis-N-(5-(7′-Fluoro-3′-methyl-3-((methylamino)methyl)-2′-oxo-2′,3′-dihydrospiro[cyclobutane-1,1′-pyrrolo[2,3-c]quinolin]-8′-yl)-2-(2-(isopropylamino)ethoxy)pyridin-3-yl)methanesulfonamide]: > 0.1 µM.
Take `CNC[C@H]1C[C@@]2(C1)C(=O)N(C)c1cnc3cc(F)c(-c4cnc(OCCNC(C)C)c(NS(C)(=O)=O)c4)cc3c12` [Example 455, trans-N-(5-(7′-Fluoro-3′-methyl-3-((methylamino)methyl)-2′-oxo-2′,3′-dihydrospiro[cyclobutane-1,1′-pyrrolo[2,3-c]quinolin]-8′-yl)-2-(2-(isopropylamino)ethoxy)pyridin-3-yl)methanesulfonamide hydrochloride]: the IC50 was > 0.1 µM.
Next, `CC(C)NCCOc1ncc(-c2cc3c(cc2F)ncc2c3[C@]3(C[C@@H](C(C)(C)O)C3)C(=O)N2C)cc1NS(C)(=O)=O` [Example 457, trans-N-(5-(7′-Fluoro-3-(2-bydroxypropan-2-yl)-3′-methyl-2′-oxo-2′,3′-dihydrospiro[cyclobutane-1,1′-pyrrolo[2,3-c]quinolin]-8′-yl)-2-(2-(isopropylamino)ethoxy)pyridin-3-yl)methanesulfonamide]: 0.001 to 0.1 µM; `CC(C)NCCOc1ncc(-c2cc3c4c(cnc3cc2F)N(C)C(=O)C42CC3(CCNCC3)C2)cc1NS(C)(=O)=O` [Example 458, N-(5-(7′--Fluoro-3″-methyl-2″-oxo-2″,3″-dihydrodispiro [piperidine-4,1′-cyclobutane-31″-pyrrolo[2,3-c]quinolin]-8″-yl)-2-(2-(isopropylamino)ethoxy)pyridin-3-yl) methanesulfonamide]: > 0.1 µM.
`CC(C)NCCOc1ncc(-c2cc3c(cc2F)ncc2c3[C@]3(C[C@@H](Nc4ccc(Cl)cc4)C3)C(=O)N2C)cc1NS(C)(=O)=O` [Example 462, trans-N-(5-(3-((4-Chlorophenyl)amino)-7′-fluoro-3′-methyl-2′-oxo-2′,3′-dihydrospiro[cyclobutane-1,1′-pyrrolo[2,3-c]quinolin]-8′-yl)-2-(2-(isopropylamino)ethoxy)pyridin-3-yl)methanesulfonamide] had an IC50 of 0.001 to 0.1 µM.
As for `CC(C)NCCOc1ncc(-c2cc3c(cc2F)ncc2c3[C@]3(C[C@@H](N(C)c4ccccc4)C3)C(=O)N2C)cc1NS(C)(=O)=O` [Example 464, trans-N-{5-(7′-Fluoro-3′-methyl-3-(methyl(phenyl)amino)-2′-oxo-2′,3′-dihydrospiro[cyclobutane-1,1′-pyrrolo[2,3-c]quinolin]-8′-yl)-2-(2-(isopropylamino)ethoxy)pyridin-3-yl)methanesulfonamide], the IC50 was > 0.1 µM.
Consider `CC(C)NCCOc1ncc(-c2cc3c(cc2F)ncc2c3[C@]3(C[C@H](N(C)C)C3)C(=O)N2C)cc1NS(C)(=O)=O` [Example 465, cis-N-(5-(3-(Dimethylamino)-7′-fluoro-3′-methyl-2′-oxo-2′,3′-dihydrospiro[cyclobutane-1,1′-pyrrolo[2,3-c]quinolin]-8′-yl)-2-(2-(isopropylamino)ethoxy)pyridin-3-yl)methanesulfonamide], for which the IC50 lay in the range of 0.001 to 0.1 µM.
Compound `CC(C)NCCOc1ncc(-c2cc3c(cc2F)ncc2c3[C@]3(C[C@@H](N(C)C)C3)C(=O)N2C)cc1NS(C)(=O)=O` [Example 466, trans-N-(5-{3-(Dimethylamino)-7′-fluoro-3′-methyl-2′-oxo-2′,3′-dihydrospiro[cyclobutane-1,1′-pyrrolo[2,3-c]quinolin]-8′-yl)-2-(2-(isopropylamino)ethoxy)pyridin-3-yl)methanesulfonamide] had an IC50 of 0.001 to 0.1 µM.
As for `CC(C)NCCOc1ncc(-c2cc3c(cc2F)ncc2c3[C@]3(C[C@H](N4CCCC4)C3)C(=O)N2C)cc1NS(C)(=O)=O` [Example 467, cis-N-(5-(7′-Fluoro-3′-methyl-2′-oxo-3-(pyrrolidin-1-yl)-2′,3′-dihydrospiro[cyclobutane-1,1′-pyrrolo[2,3-c]quinolin]-8′-yl)-2-(2-(isopropylamino)ethoxy)pyridin-3-yl)methanesulfonamide], the IC50 was 0.001 to 0.1 µM.
Next, `CC(C)NCCOc1ncc(-c2cc3c(cc2F)ncc2c3[C@]3(C[C@@H](N4CCCC4)C3)C(=O)N2C)cc1NS(C)(=O)=O` [Example 468, trans-N-(5-(7′-Fluoro-3′-methyl-2′-oxo-3-(pyrrolidin-1-yl)-2′,3′-dihydrospiro[cyclobutane-1,1′-pyrrolo[2,3-c]quinolin]-8′-yl)-2-(2-(isopropylamino)ethoxy)pyridin-3-yl)methanesulfonamide]: 0.001 to 0.1 µM; `CC(C)NCCOc1ncc(-c2cc3c(cc2F)ncc2c3[C@]3(C[C@H](N4CCCCC4)C3)C(=O)N2C)cc1NS(C)(=O)=O` [Example 469, cis-N-(5-(7′-Fluoro-3′-methyl-2′-oxo-3-(piperidin-1-yl)-2′,3′-dihydrospiro[cyclobutane-1,1′-pyrrolo[2,3-c]quinolin]-8′-yl)-2-(2-(isopropylamino)ethoxy)pyridin-3-yl)methanesulfonamide]: 0.001 to 0.1 µM; `CC(C)NCCOc1ncc(-c2cc3c(cc2F)ncc2c3[C@]3(C[C@@H](N4CCCCC4)C3)C(=O)N2C)cc1NS(C)(=O)=O` [Example 470, trans-N-{5-(7′-Fluoro-3′-methyl-2′-oxo-3-(piperidin-1-yl)-2′,3′-dihydrospiro[cyclobutane-1,1′-pyrrolo[2,3-c]quinolin]-8′-yl)-2-(2-(isopropylamino)ethoxy)pyridin-3-yl)methanesulfonamide hydrochloride]: 0.001 to 0.1 µM.
Compound `CC(C)NCCOc1ncc(-c2cc3c(cc2F)ncc2c3[C@]3(C[C@H](N4CCOCC4)C3)C(=O)N2C)cc1NS(C)(=O)=O` [Example 471, cis-N-(5-(7′-Fluoro-3′-methyl-3-morpholino-2-oxo-2′,3′-dihydrospiro[cyclobutane-1,1′-pyrrolo[2,3-c]quinolin]-8′-yl)-2-(2-(isopropylamino)ethoxy)pyridin-3-yl)methanesulfonamide] showed an IC50 of 0.001 to 0.1 µM.
Next, `CC(C)NCCOc1ncc(-c2cc3c(cc2F)ncc2c3[C@]3(C[C@@H](N4CCOCC4)C3)C(=O)N2C)cc1NS(C)(=O)=O` [Example 472, trans-N-(5-(7′-Fluoro-3′-methyl-3-morpholino-2′-oxo-2′,3′-dihydrospiro[cyclobutane-1,1′-pyrrolo[2,3-c]quinolin]-8′-yl)-2-(2-(isopropylamino)ethoxy)pyridin-3-yl)methanesulfonamide]: > 0.1 µM; `CN[C@H]1C[C@@]2(C1)C(=O)N(C)c1cnc3cc(F)c(-c4cnc(OCCNC(C)C)c(NS(C)(=O)=O)c4)cc3c12` [Example 473, trans-N-(5-(7′-Fluoro-3′-methyl-3-(methylamino)-2′-oxo-2′,3′-dihydrospiro[cyclobutane-1,1′-pyrrolo[2,3-c]quinolin]-8′-yl)-2-(2-(isopropylamino)ethoxy)pyridin-3-yl)methanesulfonamide]: 0.001 to 0.1 µM.
In the case of `COCCN[C@H]1C[C@@]2(C1)C(=O)N(C)c1cnc3cc(F)c(-c4cnc(OCCNC(C)C)c(NS(C)(=O)=O)c4)cc3c12` [Example 474, trans-N-{5-(7′-Fluoro-3-((2-methoxyethyl)amino)-3′-methyl-2′-oxo-2′,3′-dihydrospiro[cyclobutane-1,1′-pyrrolo[2,3-c]quinolin]-8′-yl)-2-(2-(isopropylamino)ethoxy)pyridin-3-yl)methanesulfonamide], the IC50 is 0.001 to 0.1 µM.
With `CC(C)NCCOc1ncc(-c2cc3c(cc2F)ncc2c3[C@]3(C[C@H](n4ccccc4=O)C3)C(=O)N2C)cc1NS(C)(=O)=O` [Example 475, cis-N-(5-(7′-Fluoro-3′-methyl-2′-oxo-3-(2-oxopyridin-1(2H)-yl)-2′,3′-dihydrospiro[cyclobutane-1,1′-pyrrolo[2,3-c]quinolin]-8′-yl)-2-(2-(isopropylamino)ethoxy)pyridin-3-yl)methanesulfonamide], the IC50 is > 0.1 µM.
In the case of `CC(C)NCCOc1ncc(-c2cc3c(cc2F)ncc2c3[C@]3(C[C@H](n4cccn4)C3)C(=O)N2C)cc1NS(C)(=O)=O` [Example 476, cis-N-(5-(7′-Fluoro-3′-methyl-2′-oxo-3-(1H-pyrazol-1-yl)-2′,3′-dihydrospiro[cyclobutane-1,1′-pyrrolo[2,3-c]quinolin]-8′-yl)-2-(2-(isopropylamino)ethoxy)pyridin-3-yl)methanesulfonamide], the IC50 was > 0.1 µM.
